PMC8667942 (Journal of Enzyme Inhibition and Medicinal Chemistry, 2021)

Tests used:
IP3K = conditions: [ATP] = 10 μM; cited from earlier work
IP6K = conditions: [ATP] = 1 mM; cited from earlier work
purified CYP3A4 = purified CYP3A4 (Homo sapiens, UniProt P08684); assay: Spectral binding titration of purified CYP3A4; conditions: Type I or Type II spectral change
Protocol: Purified CYP3A4 enzymes were diluted to 1 µM in 100 mM potassium phosphate buffer (pH 7.4) and then divided into two glass cuvettes. […] The binding titration was analysed using GraphPad Prism software (GraphPad, Inc., La Jolla, CA, USA).

human IP6K2 = biological target: T1, human IP6K2 (Homo sapiens, UniProt Q9UHH9); assay: IP6K2 inhibition assay (ADP Glo kinase assay); assay type: biochemical; conditions: purified human IP6K2, 10 μM IP6, 10 μM ATP, 8-dose, triplicate, mean ± SEM
T1 construct: made in house; host or cells: Sf9 insect cells (baculovirus)
T1 sequence (Q9UHH9 1-426): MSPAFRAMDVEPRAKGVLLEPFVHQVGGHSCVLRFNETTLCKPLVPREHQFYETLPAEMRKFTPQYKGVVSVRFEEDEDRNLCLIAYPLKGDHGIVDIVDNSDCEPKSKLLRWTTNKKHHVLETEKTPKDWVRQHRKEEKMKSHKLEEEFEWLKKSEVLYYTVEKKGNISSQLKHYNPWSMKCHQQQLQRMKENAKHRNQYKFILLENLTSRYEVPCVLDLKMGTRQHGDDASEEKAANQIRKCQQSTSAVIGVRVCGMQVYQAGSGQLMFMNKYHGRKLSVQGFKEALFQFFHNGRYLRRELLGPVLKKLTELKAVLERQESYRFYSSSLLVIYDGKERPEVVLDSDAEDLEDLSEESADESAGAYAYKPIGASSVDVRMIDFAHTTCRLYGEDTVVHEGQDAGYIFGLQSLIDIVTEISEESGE
Protocol: Full-length human IP6K2 cDNA was subcloned into pFASTBAC1 plasmid (Gibco) with an N-terminal FLAG epitope sequence, and baculovirus was generated according to the manufacturer’s instructions. Sf9 insect cells were infected with baculovirus and incubated for 72 h. The cells were resuspended in lysis buffer [20 mM Tris–HCl (pH 7.9), 500 mM NaCl, 4 mM MgCl2, 0.4 mM EDTA, 2 mM DTT, 20% glycerol, 1 mM PMSF, and protease inhibitor cocktail (Roche)] and then disrupted with a Dounce homogeniser (pestle A, 3 series of 10 strokes with 10 min interval).
IP6K2 activity was measured using ADP Glo assay kit (Promega). All kinase assays were performed in low volume 384-well white plates (784075, Greiner-bioone) with a final volume of 5 μL. The reaction buffer contained 2 ng Flag-hIP6K2, 10 μM IP6, and 10 μM ATP in kinase buffer (50 mM Tris, 10 mM MgCl2, 2.5 mM DTT, 0.02% Triton-X-100, pH 6.8)[26]. For dose-dependent inhibition assay, 8 serial 2-fold dilutions of test compounds were prepared in DMSO. The final DMSO concentration was 5% in each reaction. The test compounds (5X, 25% DMSO in 1X kinase buffer) were dispensed to each well, and 2.5 X IP6K2 in kinase buffer were added. After 15 min incubation at room temperature, 2.5 X concentrations of IP6 and ATP were added to the plate. The reaction plate was incubated in a 37 °C incubator for 30 min. Next, the reactions were quenched with 5 μL of ADP Glo reagent for 40 min to deplete the remaining ATP. To convert the remaining ADP to ATP, 10 μl of detection reagent were added and incubated for 30–60 min. The luminescence of the final reactants was measured using the Mithras LB940 plate reader from Berthold. Samples were run in triplicate and the activity (%) was calculated using the following equations; Activity (%) = 100 × (μexperimental–μnegative)/(μpositive–μnegative). Negative control was DSMO-treated reaction. IC50 value was estimated using a logistic regression model with R package.

purified CYP3A4, sequence (P08684 whole entry): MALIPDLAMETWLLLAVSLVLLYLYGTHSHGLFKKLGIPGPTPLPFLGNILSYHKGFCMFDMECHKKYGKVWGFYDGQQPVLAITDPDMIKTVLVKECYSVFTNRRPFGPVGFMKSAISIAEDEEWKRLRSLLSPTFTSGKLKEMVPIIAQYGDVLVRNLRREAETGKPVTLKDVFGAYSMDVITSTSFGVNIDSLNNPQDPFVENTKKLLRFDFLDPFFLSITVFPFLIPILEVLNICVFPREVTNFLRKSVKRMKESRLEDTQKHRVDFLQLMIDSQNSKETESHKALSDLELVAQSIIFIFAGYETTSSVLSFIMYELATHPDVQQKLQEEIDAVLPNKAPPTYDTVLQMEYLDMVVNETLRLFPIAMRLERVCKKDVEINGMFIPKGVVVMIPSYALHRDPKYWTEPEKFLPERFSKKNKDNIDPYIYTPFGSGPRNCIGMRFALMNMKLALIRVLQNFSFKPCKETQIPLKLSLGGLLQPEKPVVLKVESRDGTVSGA

For `O=[N+]([O-])c1ccc(CNc2nc(NCc3cccc(C(F)(F)F)c3)nc3[nH]cnc23)cc1` [TNP, N^6-[(4-nitrophenyl)methyl]-N^2-[[3-(trifluoromethyl)phenyl]methyl]-9H-purine-2,6-diamine], the IC50 (IP3K) is listed as 18 µM, the IC50 (IP6K) is listed as 0.47 µM and the CYP3A4 binding mode (purified CYP3A4) is listed as “Type I”. For the same compound, the IC50 (human IP6K2) was 4.5 ± 0.4 µM.
